Consider five molecules from ChEMBL document CHEMBL1201862, “PubChem BioAssay data set” (2004).

The term IC50 denotes the concentration needed to halve the response being measured. In general, AC50 refers to the concentration at which the activity in the assay is half-maximal.

Experiment [1] concerns HEK293. Description: NOD1 signaling inhibitors, primary screen, cell-based, luminescence, uHTS (AID 1578). Conditions: Homo sapiens. It counts as functional.
Experiment [2] concerns the target Nucleotide-binding oligomerization domain-containing protein 2 (Homo sapiens, UniProt Q9HC29). Description: NOD2 signaling inhibitors, cell-based, luminescence, uHTS, HEK293 (AID 1566). It counts as functional.
Experiment [3] relates to HEK293. In words: NOD2 signaling inhibitors in MDP-stimulated cells, cell-based, uHTS, luminescence (AID 2001). The conditions noted are these: Homo sapiens. It counts as functional.
Experiment [4] relates to HEK293. Description: cells. Conditions: Homo sapiens. The experiment is classed as functional, cell-based.
The nature of experiment [5]: Luminescence Cell-Based Dose Retest to Confirm Inhibitors of Cancer Stem Cells. [Related pubchem assays (depositor defined):AID2717, AID2721]. The conditions noted are these: Homo sapiens. It counts as functional.
The target in the next experiment is Beta-galactosidase (Escherichia coli, UniProt Q8VNN2). Description: beta-galactosidase enzyme inhibitors and activators, dose response, artefact control for CCR6 antagonist project, biochemical, E. coli enzyme, set 3 (AID 504712). The experiment is classed as functional.
For the next experiment, the system named is CHO. In words: cytotoxicity in TLR9-MyD88 CHO cells, dose response, cytotoxicity control for TLR9-MyD88 binding inhibitor project, cell-based, luminescence (AID 588339).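 Also: CHO cells stably coexpressing TLR9 and MyD88 fusions from primary screen; compound exposure lasted 48 hours before viability readout.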 The experiment is classed as functional, hamster. The conditions noted are these: Cricetulus griseus.
In experiment [6] the target is T1, Replicative DNA helicase DnaB (Mycobacterium tuberculosis, UniProt P9WMR3).
T1 sequence (P9WMR3 whole entry): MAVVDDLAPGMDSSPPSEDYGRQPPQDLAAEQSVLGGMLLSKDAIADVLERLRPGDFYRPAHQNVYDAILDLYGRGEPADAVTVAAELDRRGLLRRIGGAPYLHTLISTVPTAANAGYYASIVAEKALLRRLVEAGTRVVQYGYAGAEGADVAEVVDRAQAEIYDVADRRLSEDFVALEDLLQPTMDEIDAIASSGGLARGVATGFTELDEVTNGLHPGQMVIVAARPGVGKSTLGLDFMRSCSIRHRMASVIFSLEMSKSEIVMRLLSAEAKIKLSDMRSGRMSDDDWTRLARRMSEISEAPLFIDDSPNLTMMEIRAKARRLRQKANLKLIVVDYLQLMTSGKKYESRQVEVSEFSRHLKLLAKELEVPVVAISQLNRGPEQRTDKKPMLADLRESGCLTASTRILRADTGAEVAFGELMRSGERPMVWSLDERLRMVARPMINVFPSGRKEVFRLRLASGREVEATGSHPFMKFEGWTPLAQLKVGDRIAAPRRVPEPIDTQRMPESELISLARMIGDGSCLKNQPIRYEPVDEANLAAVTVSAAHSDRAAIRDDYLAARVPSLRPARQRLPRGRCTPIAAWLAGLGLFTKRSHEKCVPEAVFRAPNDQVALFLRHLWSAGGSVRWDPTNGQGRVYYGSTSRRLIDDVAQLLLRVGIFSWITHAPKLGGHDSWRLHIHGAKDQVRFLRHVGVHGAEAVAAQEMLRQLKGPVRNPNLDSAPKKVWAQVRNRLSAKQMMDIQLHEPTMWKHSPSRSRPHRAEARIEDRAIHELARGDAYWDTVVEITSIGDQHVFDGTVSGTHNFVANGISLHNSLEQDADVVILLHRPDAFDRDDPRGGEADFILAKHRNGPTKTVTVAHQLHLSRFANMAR
Description: DnaB intein splicing inhibitors, dose response, biochemical, cell-free fluorescence (AID 449749). The experiment is classed as functional.

In experiment [7] the target is Heat shock protein HSP 90-alpha (Homo sapiens, UniProt P07900). The experiment is classed as functional, organism-based.
For another experiment, the target named is Apelin receptor (Homo sapiens, UniProt P35414). Description: APJ beta-arrestin recruitment antagonism, SAR follow-up, selectivity assay for CCR6 antagonist project, cell-based, luminescent, enzyme-fragment complementation (AID 588359). The experiment is classed as functional. Background: Activated receptors often draw arrestin, which recruitment assays turn into a signal.

In a further experiment the target is T2, Protein RecA (Mycobacterium tuberculosis, UniProt P9WHJ3).
T2 sequence (P9WHJ3 whole entry): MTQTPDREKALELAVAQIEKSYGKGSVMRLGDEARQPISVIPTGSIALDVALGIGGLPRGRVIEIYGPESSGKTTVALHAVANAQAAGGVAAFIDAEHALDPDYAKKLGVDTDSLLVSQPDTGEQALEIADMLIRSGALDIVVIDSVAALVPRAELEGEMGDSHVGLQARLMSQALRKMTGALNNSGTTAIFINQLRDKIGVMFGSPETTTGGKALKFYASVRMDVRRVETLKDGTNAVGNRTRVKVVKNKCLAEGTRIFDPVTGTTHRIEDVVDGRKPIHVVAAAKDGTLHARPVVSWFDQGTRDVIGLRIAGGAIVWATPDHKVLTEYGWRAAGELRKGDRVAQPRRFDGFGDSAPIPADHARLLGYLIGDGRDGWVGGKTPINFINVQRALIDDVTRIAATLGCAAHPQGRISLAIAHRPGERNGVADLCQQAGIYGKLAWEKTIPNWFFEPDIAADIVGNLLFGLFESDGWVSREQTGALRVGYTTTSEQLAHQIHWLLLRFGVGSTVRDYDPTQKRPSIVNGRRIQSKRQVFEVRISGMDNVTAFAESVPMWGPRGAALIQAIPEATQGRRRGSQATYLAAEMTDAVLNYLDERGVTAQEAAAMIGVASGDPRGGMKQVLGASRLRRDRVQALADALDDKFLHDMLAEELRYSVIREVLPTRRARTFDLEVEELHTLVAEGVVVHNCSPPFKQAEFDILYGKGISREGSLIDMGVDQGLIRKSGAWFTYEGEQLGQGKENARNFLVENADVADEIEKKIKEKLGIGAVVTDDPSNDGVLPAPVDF
Description: Fluorescence Cell-Free Homogeneous Dose Retest to Identify Inhibitors of RecA-Intein Splicing Activity. [Related pubchem assays (depositor defined):AID2097, AID2223, AID489010, AID492950]. It counts as functional.

The target of another experiment is Beta Lactamase (Pseudomonas aeruginosa, UniProt Q932Y6). Description: beta-lactamase reporter inhibitor potency, dose response, artefact control for TLR9-MyD88 binding inhibitor project, BLA reporter cells, FRET fluorescence (AID 588341).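 Also: cell based assay in CHO-K1 cells stably expressing beta-lactamase.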 The experiment is classed as cell-based.
The nature of experiment [8]: Shn3 3'UTR reporter inhibitors, dose response, cell-based, Clone20 osteoblasts, firefly luciferase, cherry-picked (AID 624132).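 Also: firefly luciferase luminescence from reporter carrying the Shn3 3'UTR in osteoblasts.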 It counts as functional.
Experiment [9] in a line: HepG2 cell cytotoxicity, dose response, cytotoxicity control for Shn3 inhibitor project, CellTiter-Glo, cherry-picked (AID 624134). It counts as functional, cell-based.
Experiment [10] in a line: control 3'UTR Renilla luciferase suppression, dose response, counter-screen for Shn3 inhibitor project, cell-based, Clone20-Shn3RL, cherry-picked (AID 624133). It counts as functional. On the technique in general: A counterscreen serves to expose hits that act by an unwanted route or on another target.
Experiment [11] deals with ATP-binding cassette sub-family B member 6 (Homo sapiens, UniProt Q9NP58). Description: ABCB6 transporter inhibitors, porphyrin accumulation, dose response, flow cytometry, K562-ABCB6 cells, cherry pick 02 (AID 624487). It counts as functional. The conditions noted are these: read-out: EC50_MICROM. (Flow cytometry measures light scatter and fluorescence of single cells or particles in a stream.)

The nature of experiment [12]: Luminescence Cell-Based Dose Confirmation HTS to Identify Activators of 5'UTR Stem-Loop Driven Alpha-Synuclein mRNA Translation in H4 Neuroglioblastoma Cells. [Related pubchem assays: 1829 (Project Summary), 1814 (Primary HTS)]. It counts as functional.
A short description of experiment [13]: Luminescence Cell-Based Dose Response HTS to Identify Activators of Luciferase Translation or Activity in H4 […] Cells. [Related pubchem assays: 1829 (Project Summary), 1814 (Primary HTS)]. The experiment is classed as functional.
In experiment [14] the test system is Streptococcus sp. 'group A'. Description: growth inhibition of control SK(-) GAS strain, dose response, counter-screen for streptokinase expression inhibitor project, luminescence, kanamycin, BacTiterGlo, confirmation (AID 1900). It counts as functional, organism-based.
The test system of a further experiment is H4. Description: Luminescence Cell-Based Dose Response HTS to Identify Activators of 5'UTR Stem-Loop Driven Prion Protein mRNA Translation in H4 Neuroglioblastoma Cells. [Related pubchem assays: 1829 (Project Summary), 1814 (Primary HTS)]. Conditions: Homo sapiens. It counts as functional.
A further experiment concerns the target T3, Streptokinase A (Streptococcus pyogenes serotype M1, UniProt P10520).
T3 sequence (P10520 whole entry): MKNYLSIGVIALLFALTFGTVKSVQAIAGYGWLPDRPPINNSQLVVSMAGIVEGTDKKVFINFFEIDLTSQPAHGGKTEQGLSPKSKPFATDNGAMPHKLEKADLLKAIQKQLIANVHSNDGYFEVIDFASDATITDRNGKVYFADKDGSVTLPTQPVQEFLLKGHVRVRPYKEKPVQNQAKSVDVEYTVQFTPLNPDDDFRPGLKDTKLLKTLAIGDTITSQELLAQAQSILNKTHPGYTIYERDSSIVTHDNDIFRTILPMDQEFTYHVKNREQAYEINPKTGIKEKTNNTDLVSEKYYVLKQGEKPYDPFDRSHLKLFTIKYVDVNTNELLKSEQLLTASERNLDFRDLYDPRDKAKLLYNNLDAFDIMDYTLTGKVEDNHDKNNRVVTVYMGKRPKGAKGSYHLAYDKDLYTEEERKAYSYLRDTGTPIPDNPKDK
In words: S. pyogenes streptokinase expression inhibitors, potency, dose response, plasminogen activation absorbance, OD405 (AID 1914).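 Also: secreted streptokinase activity via plasminogen activation per viability signal from cell pellet.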 It counts as functional, Streptococcus pyogenes M1 GAS.

Experiment [15] addresses G-protein coupled receptor 55 (Homo sapiens, UniProt Q9Y2T6). In words: GPR55 antagonists blocking LPI-driven arrestin recruitment, primary screen, imaging, U2OS, beta-arrestin-GFP, LPI agonist (AID 2013).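 Also: antagonist potency measured as reduced agonist-driven arrestin aggregation.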 It counts as functional.
Experiment [16] can be described thus: microbe, parasite or virus in culture. The experiment is classed as functional. Conditions: Mycobacterium tuberculosis.
A further experiment relates to Streptococcus. In words: Group A Streptococcus viability loss, dose response, counter-screen for streptokinase expression inhibitor project, luminescence, BacTiterGlo (AID 1915).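 Also: potency for reduction of bacterial viability or growth.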 The experiment is classed as functional, organism-based.
Experiment [17] can be described thus: THP-1 cell cytotoxicity, dose response, cytotoxicity control for non-replicating M. tuberculosis project (AID 489025). It counts as functional.
A short description of experiment [18]: HepG2 cell cytotoxicity, dose response, cytotoxicity control for non-replicating M. tuberculosis project (AID 489018). The experiment is classed as functional. Conditions: Mycobacterium tuberculosis.
Experiment [19] in a line: Vero E6 cell cytotoxicity, dose response, cytotoxicity control for non-replicating M. tuberculosis project, secondary assay (AID 492998). The experiment is classed as functional, VeroE6. The conditions noted are these: Vero C1008.
The nature of the next experiment: cells. It counts as functional.
Experiment [20] is described as follows: cytotoxicity in NIH3T3 fibroblasts, dose response, cytotoxicity control for HSP40 inhibitor project, cell-based, CellTiter-Glo luminescence, cherry-pick, set 2 (AID 624265). The experiment is classed as functional.
Experiment [21] can be described thus: CFTR ΔF508 corrector activity in bronchial cells, dose response, human bronchial epithelial cells, plate reader, cherry-pick, two tests (AID 743267). The experiment is classed as functional, cell-based.
A short description of experiment [22]: T. cruzi intracellular amastigote growth inhibition, dose response, imaging, CA-I/72 strain, bovine embryo skeletal muscle, dry powder (AID 651885). It counts as functional, cell-based.
Experiment [23] addresses Kappa-type opioid receptor (Homo sapiens, UniProt P41145). In words: OPRK1 antagonists, late-stage follow-up, cell-based, fluorescence, dose response (AID 652032). The experiment is classed as functional.
Experiment [24] addresses Potassium channel subfamily K member 9 (Homo sapiens, UniProt Q9NPC2). In words: TASK3 (KCNK9) channel inhibitors, thallium flux, SAR follow-up, selectivity assay for TASK1 inhibitor project, cell-based, FluxOR thallium flux, concentration-response (AID 652211).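 Also: potency is for inhibitors of the channel.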 It counts as functional.

Calls of active or inactive are those of the source.

Sequence of Apelin receptor (P35414 whole entry, the tested form may be a part): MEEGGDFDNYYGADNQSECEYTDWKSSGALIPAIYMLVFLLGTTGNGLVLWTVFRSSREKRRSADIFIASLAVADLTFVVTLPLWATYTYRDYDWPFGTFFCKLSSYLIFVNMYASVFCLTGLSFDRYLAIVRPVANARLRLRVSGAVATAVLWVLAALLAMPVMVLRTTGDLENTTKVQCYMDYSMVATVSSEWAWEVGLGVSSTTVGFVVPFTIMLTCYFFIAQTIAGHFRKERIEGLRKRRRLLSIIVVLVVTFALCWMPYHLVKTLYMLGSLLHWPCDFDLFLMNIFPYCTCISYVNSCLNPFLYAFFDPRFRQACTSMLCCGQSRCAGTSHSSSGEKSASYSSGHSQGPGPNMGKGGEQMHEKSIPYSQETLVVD
Sequence of Nucleotide-binding oligomerization domain-containing protein 2 (Q9HC29 whole entry, the tested form may be a part): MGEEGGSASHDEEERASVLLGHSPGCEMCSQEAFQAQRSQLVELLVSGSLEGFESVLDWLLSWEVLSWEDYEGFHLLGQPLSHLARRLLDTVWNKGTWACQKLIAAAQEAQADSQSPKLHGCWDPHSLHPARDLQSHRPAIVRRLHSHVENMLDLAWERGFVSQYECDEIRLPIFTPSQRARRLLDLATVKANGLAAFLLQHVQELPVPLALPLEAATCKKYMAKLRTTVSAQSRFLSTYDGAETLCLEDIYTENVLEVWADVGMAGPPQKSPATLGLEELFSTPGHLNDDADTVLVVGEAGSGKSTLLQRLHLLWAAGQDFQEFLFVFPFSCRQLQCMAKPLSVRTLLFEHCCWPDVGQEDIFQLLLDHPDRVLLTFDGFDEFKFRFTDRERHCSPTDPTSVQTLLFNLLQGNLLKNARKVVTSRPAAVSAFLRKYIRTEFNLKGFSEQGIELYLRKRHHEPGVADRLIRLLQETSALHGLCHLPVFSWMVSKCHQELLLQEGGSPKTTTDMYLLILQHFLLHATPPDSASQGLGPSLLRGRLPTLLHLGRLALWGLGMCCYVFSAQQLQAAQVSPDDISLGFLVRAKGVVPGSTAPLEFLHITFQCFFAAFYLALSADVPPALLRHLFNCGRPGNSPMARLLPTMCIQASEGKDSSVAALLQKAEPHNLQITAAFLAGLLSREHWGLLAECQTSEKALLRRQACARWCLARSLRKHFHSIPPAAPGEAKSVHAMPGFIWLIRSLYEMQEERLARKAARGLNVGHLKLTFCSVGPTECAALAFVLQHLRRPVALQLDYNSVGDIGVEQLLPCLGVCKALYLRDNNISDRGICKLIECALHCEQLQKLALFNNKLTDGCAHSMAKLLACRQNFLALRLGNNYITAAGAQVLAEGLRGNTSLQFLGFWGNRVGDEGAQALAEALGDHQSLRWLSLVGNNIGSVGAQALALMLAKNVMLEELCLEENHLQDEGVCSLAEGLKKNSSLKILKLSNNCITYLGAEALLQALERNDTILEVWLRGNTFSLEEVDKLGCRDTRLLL
Sequence of Potassium channel subfamily K member 9 (Q9NPC2 whole entry): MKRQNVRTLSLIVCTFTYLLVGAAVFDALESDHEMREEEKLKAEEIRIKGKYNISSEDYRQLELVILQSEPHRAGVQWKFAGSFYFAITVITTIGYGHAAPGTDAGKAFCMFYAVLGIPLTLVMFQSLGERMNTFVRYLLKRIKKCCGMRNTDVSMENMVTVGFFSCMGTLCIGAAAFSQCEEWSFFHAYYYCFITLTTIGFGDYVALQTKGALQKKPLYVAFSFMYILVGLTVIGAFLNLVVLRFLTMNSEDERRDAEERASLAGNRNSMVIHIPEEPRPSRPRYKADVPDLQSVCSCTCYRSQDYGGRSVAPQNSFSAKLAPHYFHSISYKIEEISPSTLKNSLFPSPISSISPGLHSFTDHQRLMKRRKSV
Sequence of Beta-galactosidase (Q8VNN2 whole entry, the tested form may be a part): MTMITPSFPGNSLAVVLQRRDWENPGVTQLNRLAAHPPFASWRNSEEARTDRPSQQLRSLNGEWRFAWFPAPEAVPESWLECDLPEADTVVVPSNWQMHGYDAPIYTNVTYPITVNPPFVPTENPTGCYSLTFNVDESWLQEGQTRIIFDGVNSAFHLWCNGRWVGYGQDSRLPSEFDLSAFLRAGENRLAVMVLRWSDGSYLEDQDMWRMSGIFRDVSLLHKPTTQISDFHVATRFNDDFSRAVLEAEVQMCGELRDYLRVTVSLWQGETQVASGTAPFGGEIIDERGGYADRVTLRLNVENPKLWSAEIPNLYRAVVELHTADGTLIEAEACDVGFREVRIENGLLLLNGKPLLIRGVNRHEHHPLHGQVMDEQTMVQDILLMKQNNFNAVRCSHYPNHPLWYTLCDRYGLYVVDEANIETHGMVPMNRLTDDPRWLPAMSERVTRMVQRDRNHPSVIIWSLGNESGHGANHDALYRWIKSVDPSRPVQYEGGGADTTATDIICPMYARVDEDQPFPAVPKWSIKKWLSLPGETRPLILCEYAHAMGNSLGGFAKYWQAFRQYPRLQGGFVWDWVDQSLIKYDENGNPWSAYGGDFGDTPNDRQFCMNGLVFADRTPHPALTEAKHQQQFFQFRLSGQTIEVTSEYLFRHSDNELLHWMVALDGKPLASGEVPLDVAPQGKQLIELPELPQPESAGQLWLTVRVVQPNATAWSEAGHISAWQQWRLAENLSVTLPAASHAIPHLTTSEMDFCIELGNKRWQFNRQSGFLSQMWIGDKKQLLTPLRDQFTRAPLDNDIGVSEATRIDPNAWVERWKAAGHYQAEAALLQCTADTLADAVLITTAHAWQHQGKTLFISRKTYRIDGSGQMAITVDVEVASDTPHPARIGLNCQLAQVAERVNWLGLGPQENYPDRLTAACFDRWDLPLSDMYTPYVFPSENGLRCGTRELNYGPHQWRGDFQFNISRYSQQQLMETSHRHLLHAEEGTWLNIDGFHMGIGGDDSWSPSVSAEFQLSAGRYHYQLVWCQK
Sequence of Kappa-type opioid receptor (P41145 whole entry): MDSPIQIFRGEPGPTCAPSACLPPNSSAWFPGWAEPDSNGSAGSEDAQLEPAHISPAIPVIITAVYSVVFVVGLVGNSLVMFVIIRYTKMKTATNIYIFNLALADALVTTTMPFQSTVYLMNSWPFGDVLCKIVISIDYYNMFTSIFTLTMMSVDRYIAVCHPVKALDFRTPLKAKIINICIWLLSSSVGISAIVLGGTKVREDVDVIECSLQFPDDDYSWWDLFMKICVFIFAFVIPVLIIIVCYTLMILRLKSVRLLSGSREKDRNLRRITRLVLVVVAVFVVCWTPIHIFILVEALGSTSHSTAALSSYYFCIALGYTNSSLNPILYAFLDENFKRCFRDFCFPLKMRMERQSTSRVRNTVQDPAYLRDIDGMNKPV
Sequence of ATP-binding cassette sub-family B member 6 (Q9NP58 whole entry): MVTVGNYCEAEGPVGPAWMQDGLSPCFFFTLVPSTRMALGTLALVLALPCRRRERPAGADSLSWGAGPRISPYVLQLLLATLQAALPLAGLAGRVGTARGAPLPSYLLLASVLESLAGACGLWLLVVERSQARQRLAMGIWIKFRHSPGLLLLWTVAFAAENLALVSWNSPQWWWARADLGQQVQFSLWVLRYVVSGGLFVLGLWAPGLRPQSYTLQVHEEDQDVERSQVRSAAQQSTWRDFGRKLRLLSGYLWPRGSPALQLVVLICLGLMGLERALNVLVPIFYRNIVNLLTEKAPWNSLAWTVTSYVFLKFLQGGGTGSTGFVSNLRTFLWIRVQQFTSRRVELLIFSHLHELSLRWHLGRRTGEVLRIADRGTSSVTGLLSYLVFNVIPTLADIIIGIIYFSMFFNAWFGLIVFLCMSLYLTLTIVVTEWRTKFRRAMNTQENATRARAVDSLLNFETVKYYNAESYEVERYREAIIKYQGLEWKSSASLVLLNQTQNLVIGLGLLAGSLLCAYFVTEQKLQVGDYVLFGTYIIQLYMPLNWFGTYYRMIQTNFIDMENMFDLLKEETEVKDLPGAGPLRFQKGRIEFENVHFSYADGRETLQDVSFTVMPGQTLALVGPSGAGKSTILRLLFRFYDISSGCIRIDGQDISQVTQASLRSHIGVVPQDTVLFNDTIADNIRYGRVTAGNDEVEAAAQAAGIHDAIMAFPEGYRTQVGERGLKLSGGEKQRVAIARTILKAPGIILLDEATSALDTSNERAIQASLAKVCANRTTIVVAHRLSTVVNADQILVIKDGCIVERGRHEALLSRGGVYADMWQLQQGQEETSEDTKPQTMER
Sequence of G-protein coupled receptor 55 (Q9Y2T6 whole entry): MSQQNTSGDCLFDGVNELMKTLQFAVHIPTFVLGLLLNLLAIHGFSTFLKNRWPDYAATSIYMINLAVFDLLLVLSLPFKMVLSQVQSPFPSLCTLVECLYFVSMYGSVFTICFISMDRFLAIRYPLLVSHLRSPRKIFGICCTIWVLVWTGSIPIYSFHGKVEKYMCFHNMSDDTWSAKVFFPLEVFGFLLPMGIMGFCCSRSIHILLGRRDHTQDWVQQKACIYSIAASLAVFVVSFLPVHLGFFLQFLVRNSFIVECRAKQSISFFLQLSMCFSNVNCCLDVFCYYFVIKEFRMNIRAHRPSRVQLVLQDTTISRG
Sequence of Beta Lactamase (Q932Y6 whole entry): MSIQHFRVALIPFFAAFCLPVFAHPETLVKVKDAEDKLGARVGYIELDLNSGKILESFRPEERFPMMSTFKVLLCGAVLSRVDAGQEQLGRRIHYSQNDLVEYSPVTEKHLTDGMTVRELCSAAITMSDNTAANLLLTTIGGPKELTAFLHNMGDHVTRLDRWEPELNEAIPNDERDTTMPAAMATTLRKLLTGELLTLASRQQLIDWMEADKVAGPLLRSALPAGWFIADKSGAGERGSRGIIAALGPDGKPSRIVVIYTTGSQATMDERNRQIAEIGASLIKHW

In the case of `Cc1ccccc1CS(=O)(=O)c1ncc(Cl)c(C(=O)Nc2ccc(F)cc2)n1`, the EC50 is 8.92 µM (active) in the experiment with HEK293 [1], > 20 µM (inactive) in experiment [2], 2.79 µM (active) on Protein RecA and 30.5 µM (active) in [11]. The IC50 is 10 µM (inactive) in the experiment with HEK293 [3]; > 20 µM (inactive) with HEK293 [4]; > 66.6 µM (inactive) at Beta-galactosidase; 4.01 µM (active) in the experiment on CHO; 19.7 µM (active) at Apelin receptor; 6.25 µM (active) at Beta Lactamase. For the same molecule, the AC50 in experiment [5] was 2.2 µM (active); in experiment [6] it was 1.22 µM (active); in [7], 2.41 µM (active); in experiment [8], 3 µM (active); in experiment [9], 40.4 µM (active); in experiment [10], 11.5 µM (active).
In the case of `NC(=O)N=Nc1c2nc3ccccc3[nH]c-2c2ccccc12`, the EC50 was 13 µM (active) in experiment [12]; > 120 µM (not active) in experiment [13]; 7.71 µM (active) in experiment [14]; > 120 µM (not active) with H4; 46.2 µM (active) at Streptokinase A; > 150 µM (not active) in the experiment on Streptococcus. Further, the IC50 was 2.88 µM (active) in [15] and 11.1 µM (active) in the experiment “cells”. For the same molecule, the CC50 was 7.97 µM (active) in experiment [16], 23.5 µM (active) in experiment [17], > 20 µM (active) in [18] and 11.9 µM (active) in [19]. The AbsAC35_uM in [20] stood at 58.66 µM. Also, the AC50 in experiment [21] is 8.41 µM (active).
`CC(C)N(C)C(=O)c1cccc(NC(=O)c2ccncc2)c1OCCCN(C)Cc1ccc(Cl)cc1`: in [22], the IC50 is 0.385 µM (active).
Turning to `COC(=O)c1cc(Br)cnc1N1CCC(NC2CCCCC2)C(C)C1` (stereo not drawn), the IC50 in experiment [23] is 0.075 µM (active).
As to `Cc1cccc(C(=O)Nc2cccc(NC(=O)c3ccco3)c2)c1`, the IC50 in experiment [24] was 1.67 µM (active).
